Measurements published in patent US4450173A, “Compounds and method for treatment or prophylaxis of cardiac disorders” (American Hospital Supply Corporation, priority 1982, dated 1984).
Counter-ions that a name gives are not always drawn. Like-named read-outs stand apart in the source and are kept apart here.

How the values were obtained:
[1] = tested on: guinea pig right atria and guinea pig tracheal strips; experiment: Cardioselectivity, KB tracheal/KB atrial; assay type: cell-based
Procedure: Several of the compounds of the present invention were tested for β-blocking activity in vitro using guinea pig right atria and guinea pig tracheal strips mounted in a tissue bath containing oxygenated (95% O2 -5% CO2) Krebs physiological salt solution at 37° C. Each tissue was suspended between a fixed glass rod and a Statham® Universal Transducer connected to a Beckman® recorder. Atria were allowed to beat spontaneously under a loading tension of approximately 0.5 gm. Intrinsic depressant for stimulant activity was determined for each compound by progressively increasing concentrations in the tissue baths at 60-minute intervals. Tissues were not washed between increments. […]. Changes in rate in response to isoproterenol were measured in the absence and presence of test compounds. Spiral strips of guinea pig trachea were suspended under 5 gm resting tension and incubated with phentolamine, tropolone and cocaine. Active tension was generated by addition of carbachol (3.0×10^-7 M) and decreases in tension in response to isoproterenol were quantitated. Cumulative concentration-response curves were produced with isoproterenol both before and after 60 minute incubation of test compounds with atria and trachea. The blocking potency of test compounds was estimated by computing pA2 values (-log KB) by the method of Furchgott, The Pharmacological Differentiation of Adrenergic Receptors, Ann. N.Y. Acad. Sci.; 139: 553-570 (1967). Comparison of blockade of right atrial and tracheal responses to isoproterenol permitted assessment of cardioselectivity of test compounds; […]. A ratio greater than one indicates cardioselectivity. […]

[2] = biological target: guinea pig tracheal strips (Cavia porcellus, UniProt Q8K4Z4); experiment: cell-based; assay type: cell-based; settings: for pA2 Trachea: guinea pig trachea, carbachol tension, isoproterenol, 60 minute incubation, pA2 = -log KB; for Kb: read-out: pA2 Trachea (converted)
Procedure: Each tissue was suspended between a fixed glass rod and a Statham® Universal Transducer connected to a Beckman® recorder. Atria were allowed to beat spontaneously under a loading tension of approximately 0.5 gm. Intrinsic depressant for stimulant activity was determined for each compound by progressively increasing concentrations in the tissue baths at 60-minute intervals. Tissues were not washed between increments. […] Changes in rate in response to isoproterenol were measured in the absence and presence of test compounds. Spiral strips of guinea pig trachea were suspended under 5 gm resting tension and incubated with phentolamine, tropolone and cocaine. Active tension was generated by addition of carbachol (3.0×10^-7 M) and decreases in tension in response to isoproterenol were quantitated. Cumulative concentration-response curves were produced with isoproterenol both before and after 60 minute incubation of test compounds with atria and trachea. The blocking potency of test compounds was estimated by computing pA2 values (-log KB) by the method of Furchgott, The Pharmacological Differentiation of Adrenergic Receptors, Ann. […] A ratio greater than one indicates cardioselectivity.

[3] = tested on: heart rate response to isoproterenol (β-receptor mediated tachycardia); experiment: Duration of β-blockade in vivo in anesthetized dogs, 40-minute infusion; parameters: species or system dog; settings: for 80% Recovery Time: after 40-minute infusion, normalized to 50% inhibition; for ED50: Canis lupus familiaris, iv, 40 min, read-out: Potency (mg/kg/40 min)
Procedure: (§1) The duration of β-blockade was determined in vivo using pentobartital-anesthetized dogs instrumented for measurement of heart rate using a Beckman® cardiotachometer triggered electronically by a phasic aortic blood pressure signal. Both vagus nerves were severed in the cervical region and the animals were mechanically ventilated. Two experimental designs were used. The first employed a 40-minute infusion of test compound and the second used a 3-hour infusion of test compound. In the 40-minute model, isoproterenol was infused into a foreleg vein at the rate of 0.5 μg/kg/min to induce a β-receptor mediated tachycardia. Various doses of test compound are then infused into a femoral vein over a period of 40 minutes. This infusion was then terminated and recovery from blockade was quantitated. […] This cumulative dose is expressed as mg/kg and is an indication of potency. The time period required for 80% recovery of heart rate response for each dose of test drug was also measured to quantitate duration of action. […] Test compounds were dissolved in 0.9% NaCl and infused at a rate of 0.05 mL/kg/min or less. In the 3-hour infusion model, bolus doses of isoproterenol (0.4 μg/kg) were used to assess the degree of β-blockade and recovery from β-blockade after termination of the infusion. The doses were spaced at 10-minute intervals and were given before, during and following the infusion of test compounds. The infusion rate was adjusted so that at the end of the 3-hour infusion period the degree of isoproterenol inhibition averaged about 50% of control.

[4] = biological target: guinea pig right atria (Cavia porcellus, UniProt H0W3H1); experiment: β-blocking activity in vitro, guinea pig right atria (rate response to isoproterenol); assay type: cell-based; settings: for pA2 Atria: guinea pig right atria, isoproterenol, 60 minute incubation, pA2 = -log KB
Procedure: Each tissue was suspended between a fixed glass rod and a Statham® Universal Transducer connected to a Beckman® recorder. Atria were allowed to beat spontaneously under a loading tension of approximately 0.5 gm. Intrinsic depressant for stimulant activity was determined for each compound by progressively increasing concentrations in the tissue baths at 60-minute intervals. Tissues were not washed between increments. The maximum concentration showing little or no cardiodepressant activity was chosen for blockade experiments. Changes in rate in response to isoproterenol were measured in the absence and presence of test compounds. Spiral strips of guinea pig trachea were suspended under 5 gm resting tension and incubated with phentolamine, tropolone and cocaine. Active tension was generated by addition of carbachol (3.0×10^-7 M) and decreases in tension in response to isoproterenol were quantitated. Cumulative concentration-response curves were produced with isoproterenol both before and after 60 minute incubation of test compounds with atria and trachea. The blocking potency of test compounds was estimated by computing pA2 values (-log KB) by the method of Furchgott, The Pharmacological Differentiation of Adrenergic Receptors, Ann. […] The degree of cardioselectivity was estimated from the ratio, KB tracheal/KB atrial (10^(pA.sbsp.2^atria-pA.sbsp.2^trachea)). A ratio greater than one indicates cardioselectivity. Test drugs were dissolved in distilled water and added to the bath (30 mL) in a volume of 10 or 100 μL.

[5] = tested on: heart rate response to isoproterenol; experiment: Duration of β-blockade in vivo in anesthetized dogs, 3-hour infusion; parameters: species or system dog; settings: for ED50: Canis lupus familiaris, iv, 3-hour infusion, read-out: Potency (mg/kg/180 min); for ED50 / % I (Percent inhibition of heart rate response to isoproterenol): bolus isoproterenol 0.4 μg/kg; for 80% Recovery Time: after 3-hour infusion; for % I (Percent inhibition of heart rate response to isoproterenol): end of 3-hour infusion
Procedure: as §1

[6] = Disappearance in vitro in human whole blood; assay type: in vitro ADME; settings: 50 μg in 1 mL added to 1 mL human whole blood, 37° C.; read-out: T1/2 Human Whole Blood
Procedure: (§2) The rate of disappearance of a compound is expressed as the half-life (T1/2), which is the time period in which one-half of the initial amount of compound tested disappears. In each experiment, 1 mL of a solution containing 50 μg of the test compound was added to 1 mL of whole blood or 1 mL of a 33% (w/v) liver homogenate. […] At the designated time periods, the test mixtures were removed from the incubator and transferred to a 0° C. ice bath. Acetonitrile (2 mL) was immediately added and the mixtures were mixed to stop enzymatic hydrolysis. Zero time samples were prepared by adding 2 mL of acetonrile to denature the proteins prior to addition of the test compounds. […] The half life of each test compound was determined graphically by plotting the decrease in concentration as a function of time.

[7] = Disappearance in vitro in dog whole blood; assay type: in vitro ADME; settings: 50 μg in 1 mL added to 1 mL dog whole blood, 37° C.; read-out: T1/2 Dog Whole Blood
Procedure: as §2

[8] = Disappearance in vitro in dog liver homogenate; assay type: in vitro ADME; settings: 50 μg in 1 mL added to 1 mL of 33% (w/v) dog liver homogenate, 37° C.; read-out: T1/2 Dog Liver Homogenate
Procedure: as §2

[9] = ratio KB tracheal/KB atrial, greater than one indicates cardioselectivity
[10] = read-out: pA2 Atria (converted)

guinea pig tracheal strips, sequence (Q8K4Z4 whole entry): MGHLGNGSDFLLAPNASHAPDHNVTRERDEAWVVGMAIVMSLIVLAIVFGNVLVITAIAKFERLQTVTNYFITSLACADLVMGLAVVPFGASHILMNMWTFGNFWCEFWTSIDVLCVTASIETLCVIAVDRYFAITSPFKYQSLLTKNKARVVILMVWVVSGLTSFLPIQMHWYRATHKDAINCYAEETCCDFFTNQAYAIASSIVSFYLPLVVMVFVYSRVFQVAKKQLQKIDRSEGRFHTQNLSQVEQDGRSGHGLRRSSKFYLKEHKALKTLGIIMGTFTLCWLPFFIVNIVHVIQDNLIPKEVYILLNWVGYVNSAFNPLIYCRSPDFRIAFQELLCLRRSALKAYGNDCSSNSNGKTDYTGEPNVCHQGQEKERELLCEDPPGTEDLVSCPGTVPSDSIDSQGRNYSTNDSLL
guinea pig right atria, sequence (H0W3H1 1-470): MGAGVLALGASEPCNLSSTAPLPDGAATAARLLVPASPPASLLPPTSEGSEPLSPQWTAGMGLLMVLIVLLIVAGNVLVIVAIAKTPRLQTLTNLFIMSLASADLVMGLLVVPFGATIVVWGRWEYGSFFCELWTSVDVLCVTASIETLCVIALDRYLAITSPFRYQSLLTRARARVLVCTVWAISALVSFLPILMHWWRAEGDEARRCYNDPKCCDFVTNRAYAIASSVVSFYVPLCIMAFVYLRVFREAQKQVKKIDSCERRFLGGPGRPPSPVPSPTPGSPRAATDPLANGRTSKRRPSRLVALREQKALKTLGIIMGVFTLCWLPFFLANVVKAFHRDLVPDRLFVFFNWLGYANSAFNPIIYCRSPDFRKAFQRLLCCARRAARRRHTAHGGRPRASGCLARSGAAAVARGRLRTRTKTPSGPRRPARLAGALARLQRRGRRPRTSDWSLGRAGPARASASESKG

CCOC(=O)CNCC(O)COc1ccccc1 (stereo not shown) [Example I, Ethyl N-(2-Hydroxy-3-phenoxypropyl) glycinate Oxalate]
Cardioselectivity [1, 9]: 1 | pA2 Trachea [2]: 5.6 | Potency (mg/kg/40 min) ([3]; cumulative dose over 40-minute infusion, normalized to 50% inhibition of isoproterenol response, dogs): very low

CCOC(=O)CNCC(O)COc1cccc2ccccc12 (stereo not shown) [Example II, Ethyl N-[[2-Hydroxy-3-(1-naphthoxy]propyl]glycinate Oxalate Hemihydrate]
80% Recovery Time ([3]; dogs): 53 ± 11 min

CCOC(=O)CCNCC(O)COc1ccccc1 (stereo not shown) [Example III, Ethyl 3-[N-[2-Hydroxy-3-phenoxy)propyl]amino]propionate Oxalate]
Cardioselectivity [1, 9]: 25 | pA2 Trachea [2]: 5.9 | ED50 [3]: 12.6 ± 4.1 mg/kg | 80% Recovery Time ([3]; dogs): 29 ± 13 min

CCOC(=O)CCCNCC(O)COc1ccccc1 (stereo not shown) [Example IV]
pA2 Trachea [2]: 6.0

CCOC(=O)C(Cc1ccc(O)cc1)NCC(O)COc1ccccc1 (stereo not shown) [Example V, Ethyl N[(2-Hydroxy-3-phenoxy)propyl]tyrosinate]
pA2 Atria [4]: inactive | pA2 Trachea [2]: inactive

CCOC(=O)CCNCC(O)COc1ccc(Cl)cc1 (stereo not shown) [Example VI, Ethyl 3[N-[3-[4-(chlorophenoxy)-2-hydroxy]propyl]amino]propionate Hydrochloride]
Cardioselectivity [1, 9]: 6 | pA2 Trachea [2]: 5.6

CCOC(=O)CCNCC(O)COc1ccc(CCC(=O)OC)cc1.Cl (stereo not shown) [Example VII, Ethyl 3-[N-[2-Hydroxy-3-[4-[2-(methoxycarbonyl)ethyl]phenoxy]propyl]amino]propionate Hydrochloride]
Kb [4, 10]: 1.26 µM | Cardioselectivity [1, 9]: > 8 | Kb [2]: > 10 µM

CC(=O)Nc1ccc(OCC(O)CNC(C)C)cc1 (stereo not shown) [Practolol, reference compound]
Kb [4]: […] | 80% Recovery Time ([3]; dogs): 61 min

CC(C)NCC(O)COc1cccc2ccccc12 (stereo not shown) [Propranolol, reference compound]
80% Recovery Time ([3]; dogs): 46 min

CCOC(=O)CCNCC(O)COc1ccccc1C(=O)OC (stereo not shown) [VIII, Ethyl 3-[N-[2-Hydroxy-3-[2-(methoxycarbonyl)phenoxy]propyl]amino]propionateOxalate Hemihydrate]
Kb [4, 10]: 0.251 µM | Cardioselectivity [1]: 1.0 | pA2 Trachea [2]: 6.6 | ED50 [5]: 27.4 ± 6 mg/kg | 80% Recovery Time [5]: 10 ± 2 min | % I (Percent inhibition of heart rate response to isoproterenol) [5]: 53 ± 2%

Cc1ccccc1OCC(O)CNCCC(=O)Oc1ccc(F)cc1 (stereo not shown) [XIX]
Kb [4, 10]: 2 µM

CCOC(=O)CCCNCC(O)COc1ccccc1C (stereo not shown) [XI]
half-life [6]: 1.95 ± 0.65 h | half-life [7]: > 3 h | Cardioselectivity [1, 9]: 5 | pA2 Trachea [2]: 6.7 | ED50 [3]: 3.1 ± 0.7 mg/kg | 80% Recovery Time ([3]; dogs): 15 ± 2 min

Cc1ccccc1OCC(O)CNCCC(=O)Oc1ccccc1 (stereo not shown) [XVIII]
Kb [4, 10]: 0.398 µM | ED50 [5]: 54 ± 14 mg/kg | 80% Recovery Time [5]: > 60 min | % I (Percent inhibition of heart rate response to isoproterenol) [5]: 54 ± 8%

COC(=O)CCNCC(O)COc1ccccc1C (stereo not shown) [XVII]
half-life [8]: 9 ± 8 min | half-life [6]: 2.47 ± 0.0333 h | half-life [7]: 0.867 ± 0.15 h | Cardioselectivity [1]: 1.6 | pA2 Trachea [2]: 7.0 | ED50 [5]: 4.4 mg/kg | 80% Recovery Time [5]: 27 ± 4 min | % I (Percent inhibition of heart rate response to isoproterenol) [5]: 56 ± 4%

COC(=O)c1ccc(CNCC(O)COc2ccccc2C)cc1 (stereo not shown) [XVI]
Cardioselectivity [1, 9]: 1.6 | Kb [2]: 0.2 µM

CCOC(=O)c1ccc(CNCC(O)COc2ccccc2C)cc1 (stereo not shown) [XV]
half-life [8]: 9 ± 6 min | half-life [6]: > 3 h | half-life [7]: > 3 h | Cardioselectivity [1]: 5 | Kb [2]: 1.26 µM

CCOC(=O)CCNCC(O)COc1cccc(C)c1 (stereo not shown) [XXIII]
Cardioselectivity [1, 9]: 1.6 | pA2 Trachea [2]: 6.5

CCOC(=O)CCNCC(O)COc1cccc(Cl)c1 (stereo not shown) [XXII]
half-life [8]: 3 ± 3 min | half-life [6]: 1.97 ± 0.433 h | half-life [7]: 0.667 ± 0.25 h | Cardioselectivity [1, 9]: 5 | pA2 Trachea [2]: 6.7 | ED50 [5]: 8.5 mg/kg | 80% Recovery Time [5]: > 60 min | % I (Percent inhibition of heart rate response to isoproterenol) [5]: 77%

CCOC(=O)CCNCC(O)COc1cccc(OC)c1 (stereo not shown) [XXIV]
Cardioselectivity [1, 9]: .5 | pA2 Trachea [2]: 6.7

COC(=O)CCNCC(O)COc1cccc2ccccc12 (stereo not shown) [XXIX]
Cardioselectivity [1, 9]: 0.3 | Kb [2]: 0.0251 µM

CCOC(=O)CCNCC(O)COc1ccccc1Cl (stereo not shown) [XXI]
half-life [8]: 4 ± 3 min | half-life [6]: 2.12 ± 0.833 h | half-life [7]: 1.23 ± 0.35 h | Cardioselectivity [1, 9]: 6 | pA2 Trachea [2]: 6.6 | ED50 [5]: 10.9 mg/kg | 80% Recovery Time [5]: > 60 min | % I (Percent inhibition of heart rate response to isoproterenol) [5]: 77%

COc1ccc(CCOC(=O)CCNCC(O)COc2ccccc2C)cc1OC (stereo not shown) [XXVIII]
pA2 Atria [4]: 7.0 | Cardioselectivity [1]: 2.5 | pA2 Trachea [2]: 6.6 | ED50 [5]: 168 mg/kg | 80% Recovery Time [5]: > 60 min | % I (Percent inhibition of heart rate response to isoproterenol) [5]: 85%

CCOC(=O)CNCC(O)COc1ccccc1C (stereo not shown) [XXVII]
Cardioselectivity [1, 9]: 0.5 | pA2 Trachea [2]: 6.2

CCOC(=O)CCNCC(O)COc1c(C)cccc1C (stereo not shown) [XXVI]
Kb [4, 10]: 0.794 µM

CCOC(=O)CCNCC(O)COc1ccc(OC)cc1 (stereo not shown) [XXV]
half-life [8]: 4 ± 2.5 min | half-life [6]: 2.63 ± 0.133 h | half-life [7]: > 3 h | ED50 [3]: 17.2 ± 1.2 mg/kg | 80% Recovery Time ([3]; dogs): 11 ± 2 min

Cc1ccccc1OCC(O)CNCCC(=O)OCC(F)(F)F (stereo not shown) [XX]
Kb [4, 10]: 2 µM
